Laboratory results: patent US4906565A, “Method for the selective detection of microbial nucleotides” (Minnesota Mining and Manufacturing Company, priority 1986, dated 1990)
“And” between values parts separate entries of the source, which are not always exact repeats. Equal values may be shown once.

Tests used:
Type in all cases: biochemical
firefly luciferase [1] = target: T1, firefly luciferase (Photinus pyralis, UniProt P08659); experiment: Effect of inhibitor on the bioluminescent assay of ATP
T1 construct: purchased Lumac/3M Lumit PM
T1 sequence (P08659 whole entry): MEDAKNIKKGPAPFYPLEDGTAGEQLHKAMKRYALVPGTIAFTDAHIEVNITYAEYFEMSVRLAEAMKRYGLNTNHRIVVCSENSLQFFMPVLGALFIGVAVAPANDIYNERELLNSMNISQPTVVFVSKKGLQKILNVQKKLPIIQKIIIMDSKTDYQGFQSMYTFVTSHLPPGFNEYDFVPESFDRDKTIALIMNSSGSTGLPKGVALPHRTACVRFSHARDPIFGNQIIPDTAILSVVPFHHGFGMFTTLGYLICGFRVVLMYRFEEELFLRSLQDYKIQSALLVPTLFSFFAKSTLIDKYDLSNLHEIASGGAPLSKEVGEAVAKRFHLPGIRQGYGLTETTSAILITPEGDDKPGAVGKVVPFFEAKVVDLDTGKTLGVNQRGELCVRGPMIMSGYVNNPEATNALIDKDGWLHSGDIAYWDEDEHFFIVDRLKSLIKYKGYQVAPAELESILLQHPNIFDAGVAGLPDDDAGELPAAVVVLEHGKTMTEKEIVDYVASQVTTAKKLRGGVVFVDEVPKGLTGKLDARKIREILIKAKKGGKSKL
Protocol: Assay: from each sample triplicate 100 μl aliquots were taken. In those aliquots ATP was measured as described.
Assay: from each sample triplicate 100 μl aliquots were taken. ATP in those aliquots was measured as described.
Assay: From each sample triplicate 100 μl aliquots were taken and ATP was measured as described.
Protocol: Eight samples were prepared using materials described above and previously, as shown in TABLE 7-1 and incubated for various periods of time (i.e., 0, 5, 10 and […]) before aliquots were taken and assayed as described.
Protocol: Increasing concentrations of hexokinase, with and without PCMPSA were prepared according to TABLE 8-1 using materials described above and previously.

glycerokinase = experiment: Inhibition of glycerokinase (protection of ATP), bioluminescent ATP assay in buffer; settings: for RLU 5 min.: 5 min. after glycerol; for RLU 10 min.: 10 min. after glycerol; for RLU 15 min.: 15 min. after glycerol; for RLU 0 min.: before glycerol added
Protocol: Assay: Glycerol was added last to the samples to initiate the enzyme's activity. Before glycerol was added a 50 μl aliquot was taken from all samples. ATP levels in those aliquots (expressed in RLU) were determined as time zero values. Next glycerol was added to the mixtures and further 50 μl aliquots were taken at 5, 10, and 15 minutes. ATP in all aliquots was measured by bioluminescent means as described. Results:
(§1) Assay: Glycerol was added last to the samples to initiate the enzyme's activity. Before glycerol was added a 50 μl aliquot was taken from all samples as time zero. Next glycerol was added to the samples and after 5, 10 and 15 minutes, 50 μl aliquots were again taken. ATP in all aliquots was measured as described.
as §1, with “At” for “Next glycerol was added to the samples and after”, “minutes after addition of glycerol further” for “minutes,”, “taken from the samples.” for “again taken.”

firefly luciferase [2] = target: T1, firefly luciferase; experiment: Effect of inhibitor on the bioluminescent assay of ATP; settings: for RLU mean / RLU, triplicate aliquots 1, 2, 3: no kinase
[3] = PCMB 0.01 mM, ATP in buffer, no kinase
[4] = PCMB 0.01 mM, glycerokinase 1.6 U/ml
[5] = PCMB 0.05 mM, glycerokinase 1.6 U/ml
[6] = PCMB 0.1 mM, glycerokinase 1.6 U/ml
[7] = PCMB 0.5 mM, glycerokinase 1.6 U/ml
[8] = PCMB 1 mM, glycerokinase 1.6 U/ml
[9] = PCMB 2 mM, glycerokinase 1.6 U/ml
[10] = DNFB 0.0827 mM, ATP in Lumit buffer
[11] = DNFB 0.827 mM, ATP in Lumit buffer
[12] = DNFB 8.27 mM, ATP in Lumit buffer

O=C(O)c1cc[c]([Hg][Cl])cc1 [PCMB, p-chloromercuribenzoic acid]
RLU mean (firefly luciferase [1]; [3]): 17887 RLU | RLU, triplicate aliquots 1, 2, 3 (firefly luciferase [1]; [3]): 17959 RLU and 18219 RLU and 17484 RLU | % of control (firefly luciferase [1]; PCMB 0.01 mM, control = 0 mM PCMB): 97% | interference with the bioluminescent assay (conclusion in words) (firefly luciferase [1]; PCMB 0.01-1mM): do not significantly interfere | RLU, triplicate aliquots 1, 2, 3 (firefly luciferase [1]; PCMB 10 mM, ATP in buffer, no kinase): 11 RLU and 10 RLU | RLU 5 min. (glycerokinase; [4]): 9121 RLU | RLU 10 min. (glycerokinase; [4]): 8982 RLU | RLU 15 min. (glycerokinase; [4]): 3913 RLU | RLU 0 min. (glycerokinase; [4]): 9065 RLU | RLU 5 min. (glycerokinase; [5]): 9048 RLU | RLU 10 min. (glycerokinase; [5]): 8727 RLU | RLU 15 min. (glycerokinase; [5]): 9049 RLU | RLU 0 min. (glycerokinase; [5]): 9003 RLU | RLU 5 min. (glycerokinase; [6]): 9560 RLU | RLU 10 min. (glycerokinase; [6]): 9253 RLU | RLU 15 min. (glycerokinase; [6]): 9421 RLU | RLU 0 min. (glycerokinase; [6]): 9499 RLU | RLU 5 min. (glycerokinase; [7]): 8800 RLU | RLU 10 min. (glycerokinase; [7]): 8617 RLU | RLU 15 min. (glycerokinase; [7]): 9028 RLU | RLU 0 min. (glycerokinase; [7]): 9041 RLU | RLU 5 min. (glycerokinase; [8]): 9437 RLU | RLU 10 min. (glycerokinase; [8]): 9329 RLU | RLU 15 min. (glycerokinase; [8]): 9591 RLU | RLU 0 min. (glycerokinase; [8]): 8802 RLU | RLU 5 min. (glycerokinase; [9]): 7245 RLU | RLU 10 min. (glycerokinase; [9]): 7905 RLU | RLU 15 min. (glycerokinase; [9]): 7568 RLU | RLU 0 min. (glycerokinase; [9]): 7987 RLU | inhibition of glycerokinase (conclusion in words) (glycerokinase; PCMB final concentration 0.01 mM): sufficiently inhibited | inhibition of glycerokinase (conclusion in words) (glycerokinase; PCMB, Samples 1-6 (0.01-2 mM)): very effective inhibitor of glycerokinase | RLU mean (firefly luciferase [2]; PCMB 0.05 mM, ATP in buffer): 17508 RLU | RLU, triplicate aliquots 1, 2, 3 (firefly luciferase [2]; PCMB 0.05 mM, ATP in buffer): 17984 RLU and 17423 RLU and 17118 RLU | % of control (firefly luciferase [2]; PCMB 0.05 mM, control = 0 mM PCMB): 95% | RLU mean (firefly luciferase [2]; PCMB 0.1 mM, ATP in buffer): 18246 RLU | RLU, triplicate aliquots 1, 2, 3 (firefly luciferase [2]; PCMB 0.1 mM, ATP in buffer): 17914 RLU and 18720 RLU and 18505 RLU | % of control (firefly luciferase [2]; PCMB 0.1 mM, control = 0 mM PCMB): 99% | RLU mean (firefly luciferase [2]; PCMB 0.5 mM, ATP in buffer): 18142 RLU | RLU, triplicate aliquots 1, 2, 3 (firefly luciferase [2]; PCMB 0.5 mM, ATP in buffer): 18190 RLU and 18413 RLU and 17824 RLU | % of control (firefly luciferase [2]; PCMB 0.5 mM, control = 0 mM PCMB): 99% | RLU mean (firefly luciferase [2]; PCMB 1 mM, ATP in buffer): 13696 RLU | RLU, triplicate aliquots 1, 2, 3 (firefly luciferase [2]; PCMB 1 mM, ATP in buffer): 14576 RLU and 13556 RLU and 12956 RLU | % of control (firefly luciferase [2]; PCMB 1 mM, control = 0 mM PCMB): 75% | RLU mean (firefly luciferase [2]; PCMB 5 mM, ATP in buffer): 10 RLU | RLU, triplicate aliquots 1, 2, 3 (firefly luciferase [2]; PCMB 5 mM, ATP in buffer): 11 RLU and 10 RLU and 9 RLU | % of control (firefly luciferase [2]; PCMB 5 mM, control = 0 mM PCMB): < 1% | RLU mean (firefly luciferase [2]; PCMB 10 mM, ATP in buffer): 10 RLU | % of control (firefly luciferase [2]; PCMB 10 mM, control = 0 mM PCMB): < 1%

O=[N+]([O-])c1ccc(F)c([N+](=O)[O-])c1 [DNFB]
% of control (firefly luciferase [1]; DNFB 0.0827 mM, control = ethanol, 0 mM DNFB): 106% | interference with the bioluminescent assay of ATP by firefly luciferase (conclusion in words) (firefly luciferase [1]; DNFB concentrations of Example 3): does not interfere | inhibition of glycerokinase (conclusion in words) (glycerokinase; 0.0827 mM DNFB): not effectively inhibited | inhibition of glycerokinase (conclusion in words) (glycerokinase; 0.27 mM DNFB (so in the source)): effectively inhibited | inhibition of glycerokinase (conclusion in words) (glycerokinase; 8.27 mM DNFB (so in the source)): moderately inhibited | RLU 5 min. (glycerokinase; DNFB 0.0827 mM, glycerokinase): 11 RLU | RLU 10 min. (glycerokinase; DNFB 0.0827 mM, glycerokinase): 11 RLU | RLU 15 min. (glycerokinase; DNFB 0.0827 mM, glycerokinase): 18 RLU | RLU 0 min. (glycerokinase; DNFB 0.0827 mM, glycerokinase): 7025 RLU | RLU 5 min. (glycerokinase; DNFB 0.827 mM, glycerokinase): 1585 RLU | RLU 10 min. (glycerokinase; DNFB 0.827 mM, glycerokinase): 1498 RLU | RLU 15 min. (glycerokinase; DNFB 0.827 mM, glycerokinase): 1618 RLU | RLU 0 min. (glycerokinase; DNFB 0.827 mM, glycerokinase): 7402 RLU | RLU 5 min. (glycerokinase; DNFB 8.27 mM, glycerokinase): 7785 RLU | RLU 10 min. (glycerokinase; DNFB 8.27 mM, glycerokinase): 7965 RLU | RLU 15 min. (glycerokinase; DNFB 8.27 mM, glycerokinase): 7968 RLU | RLU 0 min. (glycerokinase; DNFB 8.27 mM, glycerokinase): 8002 RLU | RLU mean (firefly luciferase [2]; [10]): 15429 RLU | RLU, triplicate aliquots 1, 2, 3 (firefly luciferase [2]; [10]): 15157 RLU and 15625 RLU and 15507 RLU | RLU mean (firefly luciferase [2]; [11]): 15914 RLU | RLU, triplicate aliquots 1, 2, 3 (firefly luciferase [2]; [11]): 16060 RLU and 15753 RLU and 15929 RLU | % of control (firefly luciferase [2]; DNFB 0.827 mM, control = ethanol, 0 mM DNFB): 110% | RLU mean (firefly luciferase [2]; [12]): 14784 RLU | RLU, triplicate aliquots 1, 2, 3 (firefly luciferase [2]; [12]): 14498 RLU and 14780 RLU and 15076 RLU | % of control (firefly luciferase [2]; DNFB 8.27 mM, control = ethanol, 0 mM DNFB): 102.2%

CCN1C(=O)C=CC1=O [NEM, N-ethylmaleimide]
% of control (firefly luciferase [1]; NEM 19.8 mM, control = 0 mM NEM): 86.3% | RLU 5 min. (glycerokinase; NEM 4.10 mM, glycerokinase): 7275 RLU | RLU 10 min. (glycerokinase; NEM 4.10 mM, glycerokinase): 6398 RLU | RLU 15 min. (glycerokinase; NEM 4.10 mM, glycerokinase): 5922 RLU | RLU 0 min. (glycerokinase; NEM 4.10 mM, glycerokinase): 7635 RLU | RLU 5 min. (glycerokinase; NEM 8.14 mM, glycerokinase): 7130 RLU | RLU 10 min. (glycerokinase; NEM 8.14 mM, glycerokinase): 6623 RLU | RLU 15 min. (glycerokinase; NEM 8.14 mM, glycerokinase): 6365 RLU | RLU 0 min. (glycerokinase; NEM 8.14 mM, glycerokinase): 7742 RLU | RLU 5 min. (glycerokinase; NEM 12.1 mM, glycerokinase): 7413 RLU | RLU 10 min. (glycerokinase; NEM 12.1 mM, glycerokinase): 6812 RLU | RLU 15 min. (glycerokinase; NEM 12.1 mM, glycerokinase): 6997 RLU | RLU 0 min. (glycerokinase; NEM 12.1 mM, glycerokinase): 7660 RLU | RLU 5 min. (glycerokinase; NEM 19.8 mM, glycerokinase): 7138 RLU | RLU 10 min. (glycerokinase; NEM 19.8 mM, glycerokinase): 6547 RLU | RLU 15 min. (glycerokinase; NEM 19.8 mM, glycerokinase): 6820 RLU | RLU 0 min. (glycerokinase; NEM 19.8 mM, glycerokinase): 7406 RLU | RLU 5 min. (glycerokinase; NEM 16. mM, glycerokinase): 7192 RLU | RLU 10 min. (glycerokinase; NEM 16. mM, glycerokinase): 7002 RLU | RLU 15 min. (glycerokinase; NEM 16. mM, glycerokinase): 6962 RLU | RLU 0 min. (glycerokinase; NEM 16. mM, glycerokinase): 7199 RLU | inhibition of glycerokinase (conclusion in words) (glycerokinase; each NEM concentration tested (4.10-19.8 mM)): seems to be inhibited | RLU mean (firefly luciferase [2]; NEM 4.10 mM, ATP in buffer): 14410 RLU | RLU, triplicate aliquots 1, 2, 3 (firefly luciferase [2]; NEM 4.10 mM, ATP in buffer): 14387 RLU and 14794 RLU and 14051 RLU | % of control (firefly luciferase [2]; NEM 4.10 mM, control = 0 mM NEM): 97.6% | RLU mean (firefly luciferase [2]; NEM 8.14 mM, ATP in buffer): 14608 RLU | RLU, triplicate aliquots 1, 2, 3 (firefly luciferase [2]; NEM 8.14 mM, ATP in buffer): 14401 RLU and 14667 RLU and 14756 RLU | % of control (firefly luciferase [2]; NEM 8.14 mM, control = 0 mM NEM): 99.0% | RLU mean (firefly luciferase [2]; NEM 12.1 mM, ATP in buffer): 13737 RLU | RLU, triplicate aliquots 1, 2, 3 (firefly luciferase [2]; NEM 12.1 mM, ATP in buffer): 14139 RLU and 13794 RLU and 13279 RLU | % of control (firefly luciferase [2]; NEM 12.1 mM, control = 0 mM NEM): 93.1% | RLU mean (firefly luciferase [2]; NEM 16.0 mM, ATP in buffer): 13212 RLU | RLU, triplicate aliquots 1, 2, 3 (firefly luciferase [2]; NEM 16.0 mM, ATP in buffer): 12750 RLU and 13438 RLU and 13448 RLU | % of control (firefly luciferase [2]; NEM 16.0 mM, control = 0 mM NEM): 89.5% | RLU mean (firefly luciferase [2]; NEM 19.8 mM, ATP in buffer): 12747 RLU | RLU, triplicate aliquots 1, 2, 3 (firefly luciferase [2]; NEM 19.8 mM, ATP in buffer): 13534 RLU and 12596 RLU and 12111 RLU | RLU mean (firefly luciferase [2]; NEM .414 mM, ATP in buffer): 14962 RLU | RLU, triplicate aliquots 1, 2, 3 (firefly luciferase [2]; NEM .414 mM, ATP in buffer): 15071 RLU and 15081 RLU and 14735 RLU | % of control (firefly luciferase [2]; NEM .414 mM, control = 0 mM NEM): 101.4% | interference with the bioluminescent assay of ATP (conclusion in words) (firefly luciferase [2]; NEM concentrations of Example 5): interferes only moderately, if at all
